# Tests used:
# [1] = mouse, in vivo; cited from earlier work
# [2] = tested on: TH17 cells; details: in vitro and in vivo; cited from earlier work
# [3] = tested on: EL-4 cells; experiment: Intracellular IL-17 in PMA/ionomycin stimulated EL-4 cells (flow cytometry); assay type: cell-based, murine; details: 5 μM, compared to vehicle treated cells
# Protocol: (§1) The treatment of EL4 with SR2211 repressed the Il17 gene expression to a greater extent as compared to digoxin. […] In order to measure the effect of SR2211 on IL-17 production, we determined the intracellular levels of IL-17 using flow cytometry. After the stimulation of EL-4 cells with PMA/ionomycin for 3 hr, the cells were treated with BD GolgiPlug™ (protein transport inhibitor) to allow intracellular accumulation of cytokines. After 2 hr, the cells were fixed and stained to analyze the IL-17 by flow cytometry.
# For intracellular cytokine staining, cells were stimulated with PMA (50 ng/Ml) and lonomycin (1 ug/ml) for 5 hrs. After 3 hrs of incubation, BD Golgiplug (BD Bioscience) was added and incubated for 2 hrs. Then, cells were fixed, permeabilized, and stained with PEIL17A Ab (BD Biosciences). Cell sorting was performed using LSRII (BD Biosciences). • 1. Ivanov, I I; McKenzie, B. S.; Zhou, L.; Tadokoro, C. E.; Lepelley, A.; Lafaille, J. J.; Cua, D. J.; Littman, D. R. (2006) The orphan nuclear receptor RORgammat directs the differentiation program of proinflammatory IL-17+ T helper cells. Cell 126, 1121-1133. • 2. Nakae, S.; Nambu, A.; Sudo. K.; Iwakura. Y. (2003) Suppression of immune induction of collagen-induced arthritis in IL-17-deficient mice. J Immunol 171, 6173-6177. • 3. Jetten. […]
# [4] = tested on: EL-4 cells; experiment: IL-17A and IL-23R mRNA in PMA/ionomycin stimulated EL-4 cells (real-time PCR); assay type: cell-based, murine; details: 5 μM pre-treatment 20 hr, PMA/ionomycin stimulation
# Protocol: as §1
# One million EL-4 cells were seeded in each well of 6 well plate and incubated with 5 uM of digoxin or SR2211 or DMSO for 20 hrs. Cells were then stimulated with phorbol 12-myristate 13-acetate (PMA) (50 ng/ml; Sigma) and Ionomycin (1 ug/ml; Sigma) for 5 hours. Then, RNA was extracted with RNeasy midi kit using DNase I (Qiagen), then cDNA was synthesized with high capacity cDNA Reverse Transcription kits (Applied Biosystems). IL17A gene expression was normalized to the expression of GAPDH. IL17A, IL-23R and GAPDH primer sets were as follows: […]
SMILES,onset and severity of EAE [1],TH17 cell differentiation and function [2],IL-17 intracellular staining [3],IL-17 gene expression [4],expression of IL-23 receptor (Il23r) [4]
"CC(=O)Nc1nc(C)c(S(=O)(=O)Nc2ccc(C(O)(C(F)(F)F)C(F)(F)F)cc2)s1 [SR1001, N-(5-(N-(4-(1,1,1,3,3,3-hexafluoro-2-hydroxypropan-2-yl)phenyl)sulfamoyl)-4-methylthiazol-2-yl)acetamide]",effective at delaying the onset and reducing the severity,effective at suppressing TH17 cell differentiation and function in vitro and in vivo,,,
"C[C@H]1O[C@@H](O[C@H]2[C@@H](O)C[C@H](O[C@H]3[C@@H](O)C[C@H](O[C@H]4CC[C@@]5(C)[C@H](CC[C@@H]6[C@@H]5C[C@@H](O)[C@]5(C)[C@@H](C7=CC(=O)OC7)CC[C@]65O)C4)O[C@@H]3C)O[C@@H]2C)C[C@H](O)[C@@H]1O [digoxin, reference compound]",,,significant inhibition of IL-17 intracellular staining,significant reduction in the IL-17 gene expression,significantly inhibited
